Biological target: LovK (Caulobacter vibrioides, UniProt A0A0H3C379)
Test: competition with BODIPY-ATP, fluorescence anisotropy
Format: binding
Conditions: 1 mM ATP in excess; competitive, same site as BODIPY-ATP

With `Nc1ncnc2c1ncn2[C@@H]1O[C@H](COP(=O)(O)OP(=O)(O)OP(=O)(O)O)[C@@H](O)[C@H]1O` [ATP] the “competition with BODIPY-ATP, fluorescence anisotropy” value was “BODYPI-ATP is displaced from LovK due to competition for the same binding site”.

Source: paper PMC2882989 (Biochemistry, 2010)
